Measurements as given in patent publication US6953788B1, “3-mercaptoacetylamino-1,5-substituted-2-oxo-azepan derivatives useful as inhibitors of matrix metalloproteinase” (Aventis Pharmaceuticals Inc., priority 1996, dated 2005).

Assays:
MMP-3 (Stromelysin-1) = biological target: T1, MMP-3 (Stromelysin-1) (Homo sapiens, UniProt P08254); assay: Determination of inhibition constant (Ki) for MMP-3, fluorogenic substrate; format: biochemical; settings: activated MMP-3, 37° C., pH 7.6
T1 construct: The active MMP-3 was obtained by treatment of proMMP-3 with trypsin; endogenous in cells; host or cells: human rheumatoid synovial fibroblasts stimulated with macrophage-conditioned medium (secreted into the culture medium)
T1 sequence (P08254 100-477): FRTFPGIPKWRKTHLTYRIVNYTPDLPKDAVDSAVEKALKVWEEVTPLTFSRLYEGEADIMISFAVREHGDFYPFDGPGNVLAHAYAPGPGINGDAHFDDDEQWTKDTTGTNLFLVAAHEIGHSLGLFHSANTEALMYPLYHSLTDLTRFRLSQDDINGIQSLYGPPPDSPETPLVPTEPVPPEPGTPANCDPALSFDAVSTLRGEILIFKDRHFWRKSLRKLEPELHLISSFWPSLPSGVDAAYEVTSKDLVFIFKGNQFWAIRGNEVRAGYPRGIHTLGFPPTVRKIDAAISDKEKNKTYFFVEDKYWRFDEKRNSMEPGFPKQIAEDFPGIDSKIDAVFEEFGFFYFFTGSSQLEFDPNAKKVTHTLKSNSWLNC
Experimental: Aliquots of the activated MMP-3 were stored at −20° C.
The activated MMP-3 is assayed using a fluorogenic substrate, Mca-Pro-Leu-Gly-Leu-Dpa-Ala-Arg-NH2, Knight, C. […] The increase in fluorescence due to cleavage of Gly-Leu peptide bond by MMP-3 was monitored with Perkin-Elmer LS50B Fluorimeter (λex328 nm, λem393 nm, excitation slit 2.5, emission slit 10). Substrate and inhibitor stock solutions were made in DMF and 0.1% HCl-DMF, respectively. […] The enzyme (10 μL of 0.2 μM MMP-3 dilution in assay buffer) was added at the last to start the reaction. […] Under these conditions, the measured Ki,app is close to true Ki.
(§1) The Ki for a competitive inhibitor is calculated using: v0/vi=(1+[I]/Ki,app) and Ki=Ki,app/(1+[S]/KM), where v0 is the initial rate in the absence of inhibitor, vi is the initial rate in the presence of inhibitor at the concentration of [I], [S] is the substrate concentration, and Km is the Michaelis constant. If slow binding is observed (i.e. if the approach to the binding equilibrium is slow), the final steady-state rate rather than the initial rate is taken as vi.

[1] = biological target: T2, MMP-12 (macrophage metalloelastase) (Homo sapiens, UniProt P39900); assay: Determination of inhibition constant (Ki) for MMP-12, fluorogenic substrate; format: biochemical; settings: 25C., pH 7.6
T2 construct: made in house
T2 sequence (P39900 106-263 limits assumed): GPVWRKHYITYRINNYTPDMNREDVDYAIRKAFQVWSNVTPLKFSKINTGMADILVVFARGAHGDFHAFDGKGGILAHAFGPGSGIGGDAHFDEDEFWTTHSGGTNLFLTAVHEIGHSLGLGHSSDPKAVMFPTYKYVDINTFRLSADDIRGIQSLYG
Experimental: as §1

Row | Structure (SMILES) | Ki (MMP-3 (Stromelysin-1)) [nM] | Ki [1] [nM]
1 | CNC(=O)[C@H](Cc1ccccc1)N1CCN(Cc2ccccc2)C[C@H](NC(=O)[C@@H](S)CCCCN2C(=O)c3ccccc3C2=O)C1=O (relative stereo) [IV-1, 2H-Isoindole-2-hexanamide, N-[hexahydro-4-[2-(methylamino)-2-oxo-1-(phenylmethyl)ethyl]-5-oxo-1-(phenylmethyl)-1H-1,4-diazepin-6-yl]-1,3-dihydro-α-mercapto-1,3-dioxo-, [6S-[4(R*), 6R*(R*)]]-] | 210 | 
2 | CNC(=O)C(Cc1ccccc1)N1CCC(c2ccccc2)CC(NC(=O)C(S)CCCCN2C(=O)c3ccccc3C2=O)C1=O (stereo not drawn) [III-1, 2H-Isoindole-2-hexanamide, N-[hexahydro-1-[2-(methylamino)-2-oxo-1-(phenylmethyl)ethyl]-2-oxo-5-phenyl-1H-azepin-3-yl]-1,3-dihydro-α-mercapto-1,3-dioxo-, [3S-[1(R*), 3α, 5β]]-] | 73 | 53
